{"source": "patent US20170121344A1", "about": "(Siga Technologies, Inc., priority 2009, published 2017)", "tested_on": "Dengue-2 (Strain New Guinea C)", "assay": "Viral yield assay against Dengue-2 in Vero cells", "type": "cell-based, Dengue virus", "settings": "Dengue virus, read-out: Activity (EC50 class) against Dengue-2 Virus in Vero cells", "description": "Compounds that were active in the primary screen were tested for activity in viral yield assays. […] Vero cells in 12-well plates were infected with dengue-2 virus at a multiplicity of infection (MOI) of 0.1, treated with compound (or DMSO as a control), incubated at 37° C., harvested 48 hours post infection and titered on Vero cells as described above. The EC50 was calculated through ExcelFit. Activities against other serotypes of dengue virus were determined in a similar way.", "key": {"[1]": {"settings": "Vero cells, MOI 0.1, harvested 48 hours post infection"}}, "note": "Like-named read-outs stand apart in the source and are kept apart here."}
{"compound": "CCCCOc1ccc(NC(=O)c2sc3nc(N)c(C#N)cc3c2N)cc1", "note": "[Compound 70, 3,6-Diamino-5-cyano-thieno[2,3-b]pyridine-2-carboxylic acid (4-butoxy-phenyl)-amide]", "values": [{"measurement": "EC50", "setting": "Vero, 48 h", "value": "5 to 25", "unit": "µM"}]}
{"compound": "CCCc1ccc2c(N)c(C(N)=O)sc2n1", "note": "[Compound 71, 3-Amino-6-propyl-thieno[2,3-b]pyridine-2-carboxylic acid amide]", "values": [{"measurement": "EC50", "setting": "[1]", "value": "5 to 25", "unit": "µM"}]}
{"compound": "Cc1nc2sc(C(N)=O)c(N)c2c(C)c1CC(=O)c1ccccc1", "note": "[Compound 72, 3-Amino-4,6-dimethyl-5-(2-oxo-2-phenyl-ethyl)-thieno[2,3-b]pyridine-2-carboxylic acid amide]", "values": [{"measurement": "EC50", "setting": "Vero, 48 h", "value": "5 to 25", "unit": "µM"}]}
{"compound": "CCCc1ccc2c(N)c(C(=O)Nc3nc(C(F)(F)F)ccc3Cl)sc2n1", "note": "[Compound 73, 3-Amino-6-propyl-thieno[2,3-b]pyridine-2-carboxylic acid (3-chloro-6-trifluoromethyl-pyridin-2-yl)-amide]", "values": [{"measurement": "EC50", "setting": "[1]", "value": "5 to 25", "unit": "µM"}]}
{"compound": "COCc1cc(C)nc2sc(C(=O)Nc3cccc4ccccc34)c(N)c12", "note": "[Compound 74, 3-Amino-4-methoxymethyl-6-methyl-thieno[2,3-b]pyridine-2-carboxylic acid naphthalen-1-ylamide]", "values": [{"measurement": "EC50", "setting": "[1]", "value": "5 to 25", "unit": "µM"}]}
{"compound": "CCOC(=O)c1cc2c(N)c(C(=O)Nc3cccc(C(F)(F)F)c3)sc2nc1N", "note": "[Compound 75, 3,6-Diamino-2-(3-trifluoromethyl-phenylcarbamoyl)-thieno[2,3-b]pyridine-5-carboxylic acid ethyl ester]", "values": [{"measurement": "EC50", "setting": "[1]", "value": "5 to 25", "unit": "µM"}]}
{"compound": "COCc1cc(C)nc2sc3c(=O)[nH]nnc3c12", "note": "[Compound 76, 9-Methoxymethyl-7-methyl-3H-pyrido[3′,2′:4,5]thieno[3,2-d][1,2,3]triazin-4-one]", "values": [{"measurement": "EC50", "setting": "[1]", "value": "5 to 25", "unit": "µM"}]}
{"compound": "CN(C)c1ccnc2sc(C(=O)NCc3ccccc3)c(N)c12", "note": "[Compound 77, 3-Amino-4-dimethylamino-thieno[2,3-b]pyridine-2-carboxylic acid benzylamide]", "values": [{"measurement": "EC50", "setting": "[1]", "value": "5 to 25", "unit": "µM"}]}
{"compound": "Nc1c(C(=O)Nc2ccccc2F)sc2nc3c(cc12)CCCC3", "note": "[Compound 78, 3-Amino-5,6,7,8-tetrahydro-thieno[2,3-b]quinoline-2-carboxylic acid (2-fluoro-phenyl)-amide]", "values": [{"measurement": "EC50", "setting": "Vero, 48 h", "value": "5 to 25", "unit": "µM"}]}
{"compound": "Nc1c(C(=O)Nc2ccccc2F)sc2nc3c(cc12)CCCCC3", "note": "[Compound 79, 3-Amino-6,7,8,9-tetrahydro-5H-1-thia-10-aza-cyclohepta[f]indene-2-carboxylic acid (2-fluoro-phenyl)-amide]", "values": [{"measurement": "EC50", "setting": "Vero, 48 h", "value": "5 to 25", "unit": "µM"}]}
{"compound": "Nc1c(C(=O)Nc2ccc(S(N)(=O)=O)cc2)sc2nc3c(cc12)CCCCC3", "note": "[Compound 80, 3-Amino-6,7,8,9-tetrahydro-5H-1-thia-10-aza-cyclohepta[f]indene-2-carboxylic acid (4-sulfamoyl-phenyl)-amide]", "values": [{"measurement": "EC50", "setting": "Vero, 48 h", "value": "5 to 25", "unit": "µM"}]}
{"compound": "COCc1cc(C)nc2sc(C(=O)Nc3ccc(Cl)cc3)c(N)c12", "note": "[Compound 81, 3-Amino-4-methoxymethyl-6-methyl-thieno[2,3-b]pyridine-2-carboxylic acid (4-chloro-phenyl)-amide]", "values": [{"measurement": "EC50", "setting": "Vero, 48 h", "value": "5 to 25", "unit": "µM"}]}
{"compound": "NC(=O)c1sc2nc3c(cc2c1N)CCCCC3", "note": "[Compound 82, 3-Amino-6,7,8,9-tetrahydro-5H-1-thia-10-aza-cyclohepta[f]indene-2-carboxylic acid amide]", "values": [{"measurement": "EC50", "setting": "[1]", "value": "5 to 25", "unit": "µM"}]}
{"compound": "Cc1cc(C)c2c(N)c(C(=O)Nc3ccc4ccccc4c3)sc2n1", "note": "[Compound 83, 3-Amino-4,6-dimethyl-thieno[2,3-b]pyridine-2-carboxylic acid naphthalen-2-ylamide]", "values": [{"measurement": "EC50", "setting": "[1]", "value": "5 to 25", "unit": "µM"}]}
{"compound": "COc1ccc(-c2c(C#N)c(N)nc3sc(C(=O)Nc4ccc(F)cc4)c(N)c23)cc1OC", "note": "[Compound 84, 3,6-Diamino-5-cyano-4-(3,4-dimethoxy-phenyl)-thieno[2,3-b]pyridine-2-carboxylic acid (4-fluoro-phenyl)-amide]", "values": [{"measurement": "EC50", "setting": "[1]", "value": "5 to 25", "unit": "µM"}]}
{"compound": "CCN(CC)C(=O)c1sc2nc(-c3cccs3)cc(C(F)(F)F)c2c1N", "note": "[Compound 85, 3-Amino-6-thiophen-2-yl-4-trifluoromethyl-thieno[2,3-b]pyridine-2-carboxylic acid diethylamide]", "values": [{"measurement": "EC50", "setting": "[1]", "value": "5 to 25", "unit": "µM"}]}
{"compound": "Nc1c(C(=O)Nc2nccs2)sc2nc3c(c(-c4ccco4)c12)CCCC3", "note": "[Compound 86, 3-Amino-4-furan-2-yl-5,6,7,8-tetrahydro-thieno[2,3-b]quinoline-2-carboxylic acid thiazol-2-ylamide]", "values": [{"measurement": "EC50", "setting": "[1]", "value": "5 to 25", "unit": "µM"}]}
{"compound": "Nc1c(C(=O)Nc2ccc3ccccc3c2)sc2nc3c(cc12)CCCC3", "note": "[Compound 87, 3-Amino-5,6,7,8-tetrahydro-thieno[2,3-b]quinoline-2-carboxylic acid naphthalen-2-ylamide]", "values": [{"measurement": "EC50", "setting": "[1]", "value": "5 to 25", "unit": "µM"}]}
{"compound": "Nc1c(C(=O)Nc2nnc(-c3ccccc3)s2)sc2nc3c(cc12)CCC3", "note": "[Compound 88, 3-Amino-6,7-dihydro-5H-cyclopenta[b]thieno[3,2-e]pyridine-2-carboxylic acid (5-phenyl-[1,3,4]thiadiazol-2-yl)-amide]", "values": [{"measurement": "EC50", "setting": "[1]", "value": "5 to 25", "unit": "µM"}]}
{"compound": "Nc1c(C(=O)N2CCOCC2)sc2nc(-c3ccccc3)cc(C(F)(F)F)c12", "note": "[Compound 89, (3-Amino-6-phenyl-4-trifluoromethyl-thieno[2,3-b]pyridin-2-yl)-morpholin-4-yl-methanone]", "values": [{"measurement": "EC50", "setting": "[1]", "value": "5 to 25", "unit": "µM"}]}
{"compound": "CCc1nnc(NC(=O)c2sc3nc(-c4cccs4)cc(C(F)(F)F)c3c2N)s1", "note": "[Compound 90, 3-Amino-6-thiophen-2-yl-4-trifluoromethyl-thieno[2,3-b]pyridine-2-carboxylic acid (5-ethyl-[1,3,4]thiadiazol-2-yl)-amide]", "values": [{"measurement": "EC50", "setting": "Vero, 48 h", "value": "5 to 25", "unit": "µM"}]}
{"compound": "Nc1c(C(=O)Nc2ccc3ccccc3c2)sc2nc3c(cc12)CCC3", "note": "[Compound 91, 3-Amino-6,7-dihydro-5H-cyclopenta[b]thieno[3,2-e]pyridine-2-carboxylic acid naphthalen-2-ylamide]", "values": [{"measurement": "EC50", "setting": "Vero, 48 h", "value": "5 to 25", "unit": "µM"}]}
{"compound": "CCc1nnc(NC(=O)c2sc3nc4c(cc3c2N)CCCC4)s1", "note": "[Compound 92, 3-Amino-5,6,7,8-tetrahydro-thieno[2,3-b]quinoline-2-carboxylic acid (5-ethyl-[1,3,4]thiadiazol-2-yl)-amide]", "values": [{"measurement": "EC50", "setting": "[1]", "value": "5 to 25", "unit": "µM"}]}
{"compound": "CCc1nc2sc(C(=O)Nc3cccc(C(F)(F)F)c3)c(N)c2cc1C", "note": "[Compound 93, 3-Amino-6-ethyl-5-methyl-thieno[2,3-b]pyridine-2-carboxylic acid (3-trifluoromethyl-phenyl)-amide]", "values": [{"measurement": "EC50", "setting": "[1]", "value": "5 to 25", "unit": "µM"}]}
{"compound": "Cc1cc(C)c(NC(=O)c2sc3nc4c(cc3c2N)C(=O)CCC4)c(C)c1", "note": "[Compound 94, 3-Amino-5-oxo-5,6,7,8-tetrahydro-thieno[2,3-b]quinoline-2-carboxylic acid (2,4,6-trimethyl-phenyl)-amide]", "values": [{"measurement": "EC50", "setting": "[1]", "value": "5 to 25", "unit": "µM"}]}
{"compound": "CC1(C)CC(=O)c2cc3c(N)c(C(=O)NCc4ccco4)sc3nc2C1", "note": "[Compound 95, 3-Amino-7,7-dimethyl-5-oxo-5,6,7,8-tetrahydro-thieno[2,3-b]quinoline-2-carboxylic acid (furan-2-ylmethyl)-amide]", "values": [{"measurement": "EC50", "setting": "Vero, 48 h", "value": "5 to 25", "unit": "µM"}]}
{"compound": "C=CCc1c(C)nc2sc(C(=O)Nc3cccc(Cl)c3)c(N)c2c1C", "note": "[Compound 96, 5-Allyl-3-amino-4,6-dimethyl-thieno[2,3-b]pyridine-2-carboxylic acid (3-chloro-phenyl)-amide]", "values": [{"measurement": "EC50", "setting": "[1]", "value": "5 to 25", "unit": "µM"}]}
{"compound": "COCc1cc(C)nc2sc(C(=O)Nc3cccc(Cl)c3)c(N)c12", "note": "[Compound 97, 3-Amino-4-methoxymethyl-6-methyl-thieno[2,3-b]pyridine-2-carboxylic acid (3-chloro-phenyl)-amide]", "values": [{"measurement": "EC50", "setting": "[1]", "value": "5 to 25", "unit": "µM"}]}
{"compound": "COCc1cc(C)nc2sc(C(=O)Nc3cccc(C(F)(F)F)c3)c(N)c12", "note": "[Compound 98, 3-Amino-4-methoxymethyl-6-methyl-thieno[2,3-b]pyridine-2-carboxylic acid (3-trifluoromethyl-phenyl)-amide]", "values": [{"measurement": "EC50", "setting": "Vero, 48 h", "value": "5 to 25", "unit": "µM"}]}
{"compound": "NC(=O)c1sc2nc3c(c(-c4ccco4)c2c1N)CCC3", "note": "[Compound 99, 3-Amino-4-furan-2-yl-6,7-dihydro-5H-cyclopenta[b]thieno[3,2-e]pyridine-2-carboxylic acid amide]", "values": [{"measurement": "EC50", "setting": "Vero, 48 h", "value": "5 to 25", "unit": "µM"}]}
{"compound": "Cc1ccccc1-n1cnc2c(sc3nc(N4CCOCC4)c4c(c32)CC(C)(C)OC4)c1=O", "note": "[Compound 100, 2,2-Dimethyl-5-morpholin-4-yl-9-o-tolyl-1,4-dihydro-2H,9H-3-oxa-7-thia-6,9,11-triaza-benzo[c]fluoren-8-one]", "values": [{"measurement": "EC50", "setting": "[1]", "value": "5 to 25", "unit": "µM"}]}
{"compound": "COc1ccc(-c2ccc3c(N)c(C(=O)NC(C)C)sc3n2)cc1", "note": "[Compound 101, 3-Amino-6-(4-methoxy-phenyl)-thieno[2,3-b]pyridine-2-carboxylic acid isopropylamide]", "values": [{"measurement": "EC50", "setting": "[1]", "value": "5 to 25", "unit": "µM"}]}
{"compound": "CCN(C(=O)c1sc2nc(C)cc(C)c2c1N)c1ccccc1", "note": "[Compound 102, 3-Amino-4,6-dimethyl-thieno[2,3-b]pyridine-2-carboxylic acid ethyl-phenyl-amide]", "values": [{"measurement": "EC50", "setting": "[1]", "value": "5 to 25", "unit": "µM"}]}
{"compound": "Cc1cc(NC(=O)c2sc3nc4c(c(-c5cccs5)c3c2N)CN(C)CC4)no1", "note": "[Compound 103, 3-Amino-6-methyl-4-thiophen-2-yl-5,6,7,8-tetrahydro-thieno[2,3-b][1,6]naphthyridine-2-carboxylic acid (5-methyl-isoxazol-3-yl)amide]", "values": [{"measurement": "EC50", "setting": "[1]", "value": "5 to 25", "unit": "µM"}]}
{"compound": "Cc1ccc(NC(=O)c2sc3nc4c(cc3c2N)CN(C)CC4)c(F)c1", "note": "[Compound 104, 3-Amino-6-methyl-5,6,7,8-tetrahydro-thieno[2,3-b][1,6]naphthyridine-2-carboxylic acid (2-fluoro-4-methyl-phenyl)-amide]", "values": [{"measurement": "EC50", "setting": "[1]", "value": "5 to 25", "unit": "µM"}]}
{"compound": "CN1CCc2nc3sc(C(=O)NC4CC4)c(N)c3cc2C1", "note": "[Compound 105, 3-Amino-6-methyl-5,6,7,8-tetrahydro-thieno[2,3-b][1,6]naphthyridine-2-carboxylic acid cyclopropylamide]", "values": [{"measurement": "EC50", "setting": "Vero, 48 h", "value": "5 to 25", "unit": "µM"}]}
{"compound": "CN1CCc2nc3sc(C(=O)NCc4ccccc4)c(N)c3cc2C1", "note": "[Compound 106, 3-Amino-6-methyl-5,6,7,8-tetrahydro-thieno[2,3-b][1,6]naphthyridine-2-carboxylic acid benzylamide]", "values": [{"measurement": "EC50", "setting": "Vero, 48 h", "value": "5 to 25", "unit": "µM"}]}
